Data on 35 molecules can be found in patent US8163935B2, “Fused heterocyclic compounds” (Takeda Pharmaceutical Company Limited, priority 2005, dated 2012).

Each structure is given as a SMILES string.

For the molecule `CCC(CC)c1ccc(C#N)c2nc(Oc3ccc(Cl)cc3Br)n(C)c12` [Example 150, 2-(2-Bromo-4-chlorophenoxy)-7-(1-ethylpropyl)-1-methyl-1H-benzimidazole-4-carbonitrile], the melting point fell in the range of 136 to 137 °C. The figure for `CCCC(CCC)c1ccc(Cl)c2nc(Oc3c(C)cc(C)cc3C)n(C)c12` [Example 124, 4-Chloro-2-(mesityloxy)-1-methyl-7-(1-propylbutyl)-1H-benzimidazole] is 165 to 167 °C; for `CCC(CC)c1ccc(Cl)c2nc(Nc3ccc(C)cc3Br)n(C)c12` [Example 86, N-(2-Bromo-4-methylphenyl)-4-chloro-7-(1-ethylpropyl)-1-methyl-1H-benzimidazol-2-amine] it is 174 to 176 °C. Turning to `CCCC(CCC)c1ccc(Cl)c2nc(Oc3ccc(Br)cc3Cl)n(C)c12` [Example 128, 2-(4-Bromo-2-chlorophenoxy)-4-chloro-1-methyl-7-(1-propylbutyl)-1H-benzimidazole], the melting point fell in the range of 97 to 99 °C. The figure for `CCCC(CCC)c1ccc(Cl)c2nc(Oc3c(C)cc(Br)cc3C)n(C)c12` [Example 131, 2-(4-Bromo-2,6-dimethylphenoxy)-4-chloro-1-methyl-7-(1-propylbutyl)-1H-benzimidazole] is 155 to 157 °C; for `CCC(CC)c1cc(Br)cc2nc(Nc3c(C)cc(Cl)cc3OC)n(C)c12` [Example 121, 5-Bromo-N-(4-chloro-2-methoxy-6-methylphenyl)-7-(1-ethylpropyl)-1-methyl-1H-benzimidazol-2-amine] it is 276 to 278 °C.

`COc1cc(Cl)cc(C)c1Nc1nc2c(Cl)ccc(C(=O)C(C)(C)C)c2n1C` [Example 105, 1-{4-Chloro-2-[(4-chloro-2-methoxy-6-methylphenyl)amino]-1-methyl-1H-benzimidazol-7-yl}-2,2-dimethylpropan-1-one]: the melting point lay within 249 to 250 °C.

`CCCC(CCC)c1ccc(Cl)c2nc(Oc3ccc(Cl)cc3Cl)n(C)c12` [Example 127, 4-Chloro-2-(2,4-dichlorophenoxy)-1-methyl-7-(1-propylbutyl)-1H-benzimidazole] registered a melting point of 87 to 88 °C.

`CCC(CC)c1ccc(C(F)(F)F)c2nc(Nc3ccc(Cl)cc3Br)n(C)c12` [Example 159, N-(2-Bromo-4-chlorophenyl)-7-(1-ethylpropyl)-1-methyl-4-(trifluoromethyl)-1H-benzimidazol-2-amine] registered a melting point of 151 to 152 °C.

With `COc1cc(Cl)cc(C)c1Nc1nc2c(Cl)ccc(C(=C(C)C)C(C)C)c2n1C` [Example 108, 4-Chloro-N-(4-chloro-2-methoxy-6-methylphenyl)-7-(1-isopropyl-2-methylprop-1-en-1-yl)-1-methyl-1H-benzimidazol-2-amine], the melting point is 166 to 168 °C. The figure for `CCC(CC)c1ccc(Cl)c2nc(Nc3c(C)cc(Cl)cc3C)n(C)c12` [Example 83, 4-Chloro-N-(4-chloro-2,6-dimethylphenyl)-7-(1-ethylpropyl)-1-methyl-1H-benzimidazol-2-amine] is 247 to 249 °C; for `CCCC(CCC)c1ccc(Cl)c2nc(Nc3cc(C(F)(F)F)ccc3OC)n(C)c12` [Example 112, 4-Chloro-N-[2-methoxy-5-(trifluoromethyl)phenyl]-1-methyl-7-(1-propylbutyl)-1H-benzimidazol-2-amine] it is 178 to 180 °C; for `CCC(CC)c1ccc(Cl)c2nc(Oc3c(Cl)cc(Cl)cc3C(=O)N(C)C)n(C)c12` [Example 143, 3,5-Dichloro-2-{[4-chloro-7-(1-ethylpropyl)-1-methyl-1H-benzimidazol-2-yl]oxy}-N,N-dimethylbenzamide] it is 141 to 143 °C. Regarding `CCCC(CCC)c1ccc(Cl)c2nc(Nc3cccc4c3CCCC4)n(C)c12` [Example 117, 4-Chloro-1-methyl-7-(1-propylbutyl)-N-(5,6,7,8-tetrahydronaphthalen-1-yl)-1H-benzimidazol-2-amine], the melting point lay within 236 to 238 °C. The figure for `CCC(CC)c1ccc(Cl)c2nc(Oc3c(C)cc(C)cc3C)n(C)c12` [Example 99, 4-Chloro-7-(1-ethylpropyl)-2-(mesityloxy)-1-methyl-1H-benzimidazole] is 137 to 139 °C; for `CCCC(CCC)c1ccc(Cl)c2nc(Nc3ccc(Cl)cc3Cl)n(C)c12` [Example 91, 4-Chloro-N-(2,4-dichlorophenyl)-1-methyl-7-(1-propylbutyl)-1H-benzimidazol-2-amine] it is 146 to 148 °C. With `CCC(CC)c1ccc(Cl)c2nc(Nc3c(C)cc(Cl)cc3OC)n(CC(=O)OC(C)C)c12` [Example 102, Isopropyl[4-chloro-2-[(4-chloro-2-methoxy-6-methylphenyl)amino]-7-(1-ethylpropyl)-1H-benzimidazol-1-yl]acetate], the melting point lay within 205 to 207 °C. The result for `CCCC(CCC)c1ccc(Cl)c2nc(Nc3c(C)cc(Br)cc3OC)n(C)c12` [Example 89, N-(4-Bromo-2-methoxy-6-methylphenyl)-4-chloro-1-methyl-7-(1-propylbutyl)-1H-benzimidazol-2-amine] reads 210 to 211 °C.

Consider `CCC(CC)c1ccc(Cl)c2nc(Oc3c(Cl)cc(OC(F)(F)F)cc3Cl)n(C)c12` [Example 140, 4-Chloro-2-[2,6-dichloro-4-(trifluoromethoxy)phenoxy]-7-(1-ethylpropyl)-1-methyl-1H-benzimidazole], for which the melting point was 145 to 147 °C. The molecule `CCC(CC)c1ccc(C(F)(F)F)c2nc(Oc3c(C)cc(Cl)cc3Cl)n(C)c12` [Example 160, 2-(2,4-Dichloro-6-methylphenoxy)-7-(1-ethylpropyl)-1-methyl-4-(trifluoromethyl)-1H-benzimidazole] displayed a melting point of 149 to 151 °C.

Molecule `CCCC(CCC)c1ccc(Cl)c2nc(Nc3cc(C(F)(F)F)c(O)cc3Cl)n(C)c12` [Example 122, 5-Chloro-4-{[4-chloro-1-methyl-7-(1-propylbutyl)-1H-benzimidazol-2-yl]amino}-2-(trifluoromethyl)phenol] registered a melting point of 197 to 199 °C. The figure for `CCC(CC)c1ccc(Cl)c2nc(Oc3c(Cl)cc(N(C)C)cc3Cl)n(C)c12` [Example 142, 3,5-Dichloro-4-{[4-chloro-7-(1-ethylpropyl)-1-methyl-1H-benzimidazol-2-yl]oxy}-N,N-dimethylaniline] is 200 to 202 °C. As to `CCCC(CCC)c1ccc(Cl)c2nc(Nc3ccc(Cl)cc3Br)n(C)c12` [Example 92, N-(2-Bromo-4-chlorophenyl)-4-chloro-1-methyl-7-(1-propylbutyl)-1H-benzimidazol-2-amine], the melting point was 145 to 147 °C. `CCC(CC)c1ccc(Br)c2nc(Nc3c(C)cc(Cl)cc3OC)n(C)c12` [Example 96, 4-Bromo-N-(4-chloro-2-methoxy-6-methylphenyl)-7-(1-ethylpropyl)-1-methyl-1H-benzimidazol-2-amine] had a melting point of 198 to 199 °C. The figure for `CCC(CC)c1ccc(Cl)c2nc(Nc3cnc(N(C)C)cc3C)n(C)c12` [Example 88, N^5-[4-Chloro-7-(1-ethylpropyl)-1-methyl-1H-benzimidazol-2-yl]-N^2,N^2,4-trimethylpyridine-2,5-diamine] is 224 to 226 °C; for `CCC(CC)c1ccc(CO)c2nc(Oc3c(C)cc(Cl)cc3Cl)n(C)c12` [Example 154, [2-(2,4-Dichloro-6-methylphenoxy)-7-(1-ethylpropyl)-1-methyl-1H-benzimidazol-4-yl]methanol] it is 141 to 143 °C; for `CCC(CC)c1ccc(Cl)c2nc(Oc3ccc(Cl)cc3Cl)n(C)c12` [Example 98, 4-Chloro-2-(2,4-dichlorophenoxy)-7-(1-ethylpropyl)-1-methyl-1H-benzimidazole] it is 87 to 89 °C. The result for `C/C=C(/CC)c1ccc(Cl)c2nc(Nc3c(C)cc(Cl)cc3OC)n(C)c12` [Example 109, 4-Chloro-N-(4-chloro-2-methoxy-6-methylphenyl)-7-[(1Z)-1-ethylprop-1-en-1-yl]-1-methyl-1H-benzimidazol-2-amine] reads 166 to 168 °C; that for `CCC(CC)c1ccc(Cl)c2nc(Nc3c(C)cc(Br)cc3C)n(C)c12` [Example 82, N-(4-Bromo-2,6-dimethylphenyl)-4-chloro-7-(1-ethylpropyl)-1-methyl-1H-benzimidazol-2-amine], 247 to 249 °C; that for `CCC(CC)c1ccc(Cl)c2nc(Oc3c(N(C)C)cc(C)nc3C)n(C)c12` [Example 141, 3-{[4-Chloro-7-(1-ethylpropyl)-1-methyl-1H-benzimidazol-2-yl]oxy}-N,N,2,6-tetramethylpyridin-4-amine], 175 to 177 °C. For the molecule `CCC(CC)c1ccc(Cl)c2nc(Oc3c(Cl)cc(Cl)cc3Cl)n(C)c12` [Example 138, 4-Chloro-7-(1-ethylpropyl)-1-methyl-2-(2,4,6-trichlorophenoxy)-1H-benzimidazole], the melting point was 155 to 157 °C. The figure for `CCC(CC)c1ccc(Cl)c2nc(Nc3ccc(C(F)(F)F)cc3Cl)n(C)c12` [Example 95, 4-Chloro-N-[2-chloro-4-(trifluoromethyl)phenyl]-7-(1-ethylpropyl)-1-methyl-1H-benzimidazol-2-amine] is 128 to 129 °C. The figure for `CCCC(CCC)c1ccc(Cl)c2nc(Nc3c[nH]c(=O)cc3C)n(C)c12` [Example 116, 5-{[4-Chloro-1-methyl-7-(1-propylbutyl)-1H-benzimidazol-2-yl]amino}-4-methylpyridin-2(1H)-one] is 237 to 239 °C; for `COc1cc(Cl)cc(C)c1Nc1nc2c(Cl)ccc(C(O)(C(C)C)C(C)C)c2n1C` [Example 107, 3-{4-Chloro-2-[(4-chloro-2-methoxy-6-methylphenyl)amino]-1-methyl-1H-benzimidazol-7-yl}-2,4-dimethylpentan-3-ol] it is 218 to 219 °C. The result for `CCC(CC)c1ccc(Cl)c2nc(Oc3c(C)cc(Cl)cc3C)n(C)c12` [Example 125, 4-Chloro-2-(4-chloro-2,6-dimethylphenoxy)-7-(1-ethylpropyl)-1-methyl-1H-benzimidazole] reads 168 to 169 °C.
